The test system of data set [1] is PLK-1 mRNA in Hep3B tumors. In words: Hep3B tumor study, PLK-1 mRNA KD in tumor tissue. The class given is in vivo, human. The following applies: Hep3B tumor, mouse, i.v., LNP composition as in the source. From the text:
(§1) Formulated siRNAs are made up of double stranded siRNA sequences specific to a target mRNA sequence, and are in the form of lipid nucleotid particles (LNPs) containing cationic lipids, stealth lipids and neutral lipids, as provided in the Examples below. The siRNA construct for use in targeting the liver is specific to Factor VII. The siRNA construct for use in targeting tumors is specific to PLK1-424, which is published by Judge et al., See, J Clin Invest. 2009 March; 119(3):661-73; doi: 10.1172/JCI37515). • 1. FVII siRNA duplex sequence
Hep3B tumors are established in female nude mice by sc injection of 7×10^6 cells in 100 ul PBS into the left flank. Mice are randomized into treatment groups 10-14 days after seeding as tumors reached an average size of 100 mm^3. siRNA formulated LNP formulations are administered at various dose levels intravenously via the lateral tail vein calculated on a mg siRNAs/kg basis according to individual animal weights (10 ml/kg injection volume). Mice are euthanized by CO2 inhalation at various time points and the tumors are harvested for mRNA quantitation. Lipids with a wide range of pKa (5.3-6.6) are used in the LNP formulations. Tumors are measured in 2 dimensions (width×length) to assess tumor growth using digital calipers. Tumor volume is calculated using the equation [a×b×b/2], where a equals the largest diameter and b equals the smallest diameter.
(§2) About 30-50 mg tumor tissue is homogenized in tissue lysis buffer in a Qiagen homogenizer followed by centrifugation to clarify lysates. Total RNA is isolated using RNeasy isolation kit (catalog number 74106) according to the manufacture's protocol. PLK-1 mRNA is analyzed by quantitative PCR and normalized to human GAPDH. Applied Biosystems human PLK-1 gene expression assay Hs00983229_m1 and human GAPDH endogenous control cat number 4326317E are used for mRNA detection.
(§3) The pKa in all tables refers to the pKa of the cationic lipid. Where multiple doses are indicated (e.g., 3×5), the first number indicates the number of doses given and the second number indicates the amount per dose in mg siRNA (biologically active agent) per kg mouse. In general the multiple doses are administered at 24 hour intervals, and tissues for mRNA quantitation are harvested 24 hours after the last dose.

Data set [2] deals with Factor VII. The data set is described as follows: Factor VII activity assay, in vivo liver delivery of FVII siRNA LNP. Set-up: species or system mouse. Particulars: ~48 h. A digest of the protocol: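 Female CD-1 mice (~25 g) given a single i.v. tail-vein dose of FVII siRNA in LNPs (cationic, stealth, neutral lipids), dosed as mg siRNA/kg. Plasma collected ~48 h post-injection; FVII activity read against a standard curve from pooled vehicle-control plasma.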

A short description of data set [3]: Particle size and PDI by dynamic light scattering (Malvern Zetasizer). The class given is physicochemical. Set-up: Final size: unit not given here. Particulars: for Final size: LNP formulation, Table 10. The method, boiled down:
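Nanoparticles diluted in PBS to a count rate of about 200-400 kcts and measured by dynamic light scattering; size given as intensity-weighted average diameter, with polydispersity index from the same measurement.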

Data set [4] in a line: pKa of the lipid by TNS fluorescence. The class given is physicochemical. Particulars: pKa. A digest of the protocol: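 Lipid dissolved in ethanol (2 mM stock) and measured with TNS across eight buffers of differing pH, in water at standard temperature and pressure. Normalized fluorescence intensity plotted against pH and points joined by a smooth line to derive pKa, precise to about 0.2 units.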

Data set [5] relates to PLK-1 mRNA in HepG2 tumors. The data set is described as follows: HepG2 tumor study, PLK-1 mRNA KD in tumor tissue. Particulars: Mus musculus, HepG2, iv, 24 h, HepG2 tumor in nude mice, 3 × 3 mg/kg siRNA iv, tumors harvested 24 hrs after the last dose; read-out: PLK1 % inhibition. The class given is in vivo, human.
From the text: as §1
HepG2 tumors are established in female nude mice by sc injection of 5×10^6 cells in 100 ul PBS into the left flank. Mice are randomized into treatment groups 10-14 days after seeding as tumors reached an average size of 150 mm^3. siRNA formulated LNP formulations are administered at 3×3 mg/kg dose levels intravenously via the lateral tail vein calculated on a mg siRNAs/kg basis according to individual animal weights (10 ml/kg injection volume). Mice are euthanized by CO2 inhalation at various time points and the tumors are harvested 24 hrs after the last dose for mRNA quantitation. Lipids with a wide range of pKa (5.3-6.6) are used in the LNP formulations. Tumors are measured in 2 dimensions (width×length) to assess tumor growth using digital calipers. Tumor volume is calculated using the equation [a×b×b/2], where a=largest diameter and b=smallest diameter.
as §2, §3

Setting [6] is: dose 3 mg/kg siRNA i.v., lipid/DSPC/CHOL/AVANTI 880150P 50/28/18/4, N/P 3.43.
[7] abbreviates: dose 3 mg/kg siRNA i.v., lipid/no neutral lipid/CHOL/AVANTI 880150P 50/0/46/4, N/P 3.43.
Where [8] appears, read: lipid/DSPC/CHOL/AVANTI 880150P 50/28/18/4, N/P 3.43.
Where [9] appears, read: lipid/no neutral lipid/CHOL/AVANTI 880150P 50/0/46/4, N/P 3.43.
[10] abbreviates: LNP formulation with PLK1 siRNA, helper, neutral and stealth lipid, molar ratio and N/P as in the table.
The mark [11] stands for this setting: dose 1 mg/kg siRNA i.v., lipid/no neutral lipid/CHOL/GM-020 NOF 60/0/36/4, N/P 3.
The mark [12] stands for this setting: lipid/no neutral lipid/CHOL/GM-020 NOF 60/0/36/4, N/P 3.

Data on 11 molecules can be found in patent US9301923B2, “Lipids, lipid compositions, and methods of using them” (NOVARTIS AG, priority 2009, dated 2016).

A word on the pKa: it is the pH at which an ionisable group is half protonated. One may read the inhibition as the change of the read-out against control, counted positive when it falls.

For the molecule `CCCCC/C=C\C/C=C\CCCCCCCCOCC(CN1CCC(CCC)C1)OCCOCCO[C@H]1CC[C@@]2(C)C(=CCC3C2CC[C@@]2(C)C3CC[C@@H]2[C@H](C)CCCC(C)C)C1` (stereo partly shown) [E0025], the PLK1 inhibition % in data set [1] (1 × 1 mg siRNA/kg) worked out at 27%. The FVII inhib % in data set [2] (setting [6]) is given as 63%; in data set [2] (setting [7]) it was 94.2%. The “Final size (nm)” value in data set [3] (LNP formulation with PLK1 siRNA, helper, neutral and stealth lipid, molar ratio and N/P as in the table, stealth lipid S004, molar ratio 45/43/10/2, N/P 4) was 118.8 nm; in data set [3] (LNP formulation with PLK1 siRNA, helper, neutral and stealth lipid, molar ratio and N/P as in the table, stealth lipid S011, molar ratio 40/48/10/2, N/P 4), 85.63 nm; in data set [3] (LNP formulation with PLK1 siRNA, helper, neutral and stealth lipid, molar ratio and N/P as in the table, stealth lipid S011, molar ratio 60/38/2, N/P 4), 95.73 nm; in data set [3] (setting [8]) it was 97 nm; in data set [3] (setting [9]), 73 nm. The values for the PDI in data set [3] (setting [8]) and in data set [3] (setting [9]) were 0.22 and 0.12, respectively. The same molecule showed a pKa in data set [4] of 5.45.

Molecule `CCCCC/C=C\C/C=C\CCCCCCCCOCC(CN1CCC(O)C1)OCCOCCO[C@H]1CC[C@@]2(C)C(=CC[C@H]3[C@@H]4CC[C@H]([C@H](C)CCCC(C)C)[C@@]4(C)CC[C@@H]32)C1` (stereo partly shown) [E0045] had a PLK1 inhibition % in data set [1] (1 × 1 mg siRNA/kg) of 36%. In addition, the FVII inhib % in data set [2] (setting [6]) is on record as 10.4%; in data set [2] (setting [7]), 90.7%. Also, the “Final size (nm)” value in data set [3] (setting [10]) was found to be 103.2 nm; in data set [3] (setting [8]) it was 100 nm; in data set [3] (setting [9]) it was 103 nm. In addition, the PDI is reported as 0.18 in data set [3] (setting [8]) and 0.25 in data set [3] (setting [9]). The molecule further had a pKa in data set [4] of 4.73.

Take `CCCCC/C=C\C/C=C\CCCCCCCCOCC(Cn1ccnc1)OCCOCCO[C@H]1CC[C@@]2(C)C(=CCC3C2CC[C@@]2(C)C3CC[C@@H]2[C@H](C)CCCC(C)C)C1` (stereo partly shown) [E0051]: in data set [1] (1 × 10 mg siRNA/kg), the PLK1 inhibition % is 17%. The results for the FVII inhib % in data set [2] (setting [6]) and in data set [2] (setting [7]) were 17% and 77.5%, respectively. Also, the results for the “Final size (nm)” value in data set [3] (setting [10]), in data set [3] (setting [8]) and in data set [3] (setting [9]) were 85.77 nm, 157.7 nm and 142.9 nm, respectively. In addition, the results for the PDI in data set [3] (setting [8]) and in data set [3] (setting [9]) were 0.131 and 0.057, respectively. The same molecule gave a pKa in data set [4] of 5.73.

As for `CCCCCCCC/C=C\CCCCCCCCOCC(CN1CCCCC1)OCCO[C@H]1CC[C@@]2(C)C(=CC[C@H]3[C@@H]4CC[C@H]([C@H](C)CCCC(C)C)[C@@]4(C)CC[C@@H]32)C1` (stereo partly shown) [E0061], the PLK1 inhibition % in data set [1] (1 × 1 mg siRNA/kg) turned out to be 23%. The FVII inhib % in data set [2] (setting [11]) turned out to be 52.6%. In data set [3] (setting [10]), the “Final size (nm)” value turned out to be 90.09 nm. In data set [3] (setting [12]), the “Final size (nm)” value was 139.4 nm and the PDI came out at 0.073. The molecule further showed a pKa in data set [4] of 6.28.

Molecule `CCCCC/C=C\C/C=C\CCCCCCCCOCC(CN1CCCCC1)OCCCOCCCO[C@H]1CC[C@@]2(C)C(=CC[C@H]3[C@@H]4CC[C@H]([C@H](C)CCCC(C)C)[C@@]4(C)CC[C@@H]32)C1` (stereo partly shown) [E0077] showed a PLK1 inhibition % in data set [1] (1 × 5 mg siRNA/kg) of 77%. Moreover, the FVII inhib % in data set [2] (setting [11]) is 26.8%. In data set [3] (setting [10]), the “Final size (nm)” value is 120.8 nm. In addition, in data set [3] (setting [12]), the “Final size (nm)” value is 109.8 nm and the PDI is given as 0.127. Further, in data set [4], the pKa was 5.79.

For `CCCCC/C=C\C/C=C\CCCCCCCCOCC(CN1CCC(OC)C1)OCCCOCCCO[C@H]1CC[C@@]2(C)C(=CC[C@H]3[C@@H]4CC[C@H]([C@H](C)CCCC(C)C)[C@@]4(C)CC[C@@H]32)C1` (stereo partly shown) [E0088], the PLK1 inhibition % in data set [1] (1 × 5 mg siRNA/kg) amounted to 71%. In data set [2] (setting [11]), this molecule registered an FVII inhib % of 50.8%. Moreover, in data set [3] (setting [10]), the “Final size (nm)” value was 146.2 nm. In data set [3] (setting [12]), the “Final size (nm)” value stood at 110.7 nm and the PDI was determined as 0.080. In data set [4], this molecule gave a pKa of 5.79.

Regarding `CCCCC/C=C\C/C=C\CCCCCCCCCCOCC(CN1CCCC1C)OCCCOCCCO[C@H]1CC[C@@]2(C)C(=CC[C@H]3[C@@H]4CC[C@H]([C@H](C)CCCC(C)C)[C@@]4(C)CC[C@@H]32)C1` (stereo partly shown) [E0095], the PLK1 inhibition % in data set [1] (1 × 0.1 mg siRNA/kg) worked out at 23%. Besides, the FVII inhib % in data set [2] (setting [11]) was 13%. Moreover, the “Final size (nm)” value in data set [3] (setting [10]) amounted to 96.09 nm; in data set [3] (setting [12]), 125.1 nm. This molecule registered a PDI in data set [3] (setting [12]) of 0.091. In data set [4], the pKa was 5.84.

In data set [2] (setting [11]), `CCCCC/C=C\C/C=C\CCCCCCCCCCOCC(CN1CCCCC1)OCCCOCCCO[C@H]1CC[C@@]2(C)C(=CC[C@H]3[C@@H]4CC[C@H]([C@H](C)CCCC(C)C)[C@@]4(C)CC[C@@H]32)C1` (stereo partly shown) [E0096] registered an FVII inhib % of 14.4%. The Final size in data set [3] amounted to 94.91. Further, in data set [3] (setting [12]), the “Final size (nm)” value is 128.8 nm and the PDI is reported as 0.162. The inhibition at 3 mg/kg in data set [5] stood at 17%. For the same molecule, the pKa in data set [4] was determined as 5.77.

As for `CCCCC/C=C\C/C=C\CCCCCCCCOC[C@@H](CN1CCC[C@H]1C)OCCCOC(=O)CCC(=O)O[C@H]1CC[C@@]2(C)C(=CCC3C2CC[C@@]2(C)C3CC[C@@H]2[C@H](C)CCCC(C)C)C1` (stereo partly shown) [E0162], the Final size in data set [3] is reported as 114.4. For the same molecule, the inhibition at 3 mg/kg in data set [5] is 0%. In data set [4], the pKa stood at 6.07.

`CCCCCCCC/C=C\CCCCCCCCOCC(CN1CCOCC1)OCCOCCNC(=O)O[C@H]1CC[C@@]2(C)C(=CC[C@H]3[C@@H]4CC[C@H]([C@H](C)CCCC(C)C)[C@@]4(C)CC[C@@H]32)C1` (stereo partly shown) [E0175]: the Final size was 93.51 in data set [3] (molar ratio 50/43/5/2, N/P 3.8) and 78.74 in data set [3] (molar ratio 60/38/2, N/P 4). For the same molecule, the inhibition at 3 mg/kg in data set [5] is 49%. In data set [4], the pKa was found to be 5.67.

In data set [1] (1 × 1 mg siRNA/kg), `CCCCCCCC/C=C\CCCCCCCCOCC(CCN1CCOCC1)OCCOCCO[C@H]1CC[C@@]2(C)C(=CCC3C2CC[C@@]2(C)C3CC[C@@H]2[C@H](C)CCCC(C)C)C1` (stereo partly shown) [E0180] showed a PLK1 inhibition % of 16%. Besides, the “Final size (nm)” value in data set [3] (setting [10]) was determined as 77.35 nm. Moreover, the Final size in data set [3] is on record as 77.35. In addition, the inhibition at 3 mg/kg in data set [5] was 0%.
